Source: ChEMBL document CHEMBL1201862, “PubChem BioAssay data set” (2004)
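Method: 48-hour compound exposure of cells in 96-well plates, five concentrations, linear interpolation of endpoints. The concentration for 50% growth inhibition is given as GI50.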 Activity calls are given as the source filed them. Rule as the data show it: active = GI50 up to about 1.1 µM and inactive = higher.

Assays:
Experiment in all cases: NCI tumour cell line growth inhibition, 48 h
CCRF-CEM = tested on: CCRF-CEM
786-0 = tested on: 786-0
MOLT-4 = tested on: MOLT-4
SN12C = tested on: SN12C
HOP-62 = tested on: HOP-62
NCI-H23 = tested on: NCI-H23
HCC 2998 = tested on: HCC 2998
SK-OV-3 = tested on: SK-OV-3
SF-295 = tested on: SF-295
OVCAR-8 = tested on: OVCAR-8
SF-539 = tested on: SF-539
SNB-75 = tested on: SNB-75
SW-620 = tested on: SW-620
HL-60 = tested on: HL-60
NCI-H226 = tested on: NCI-H226
KM12 = tested on: KM12
LOX IMVI = tested on: LOX IMVI
UACC-257 = tested on: UACC-257

Measured: GI50

Nc1c([N+](=O)[O-])nc(Cl)c2nncn12
inactive: CCRF-CEM > 46 µM | 786-0 > 87.7 µM | MOLT-4 > 100 µM | SN12C > 100 µM | HOP-62 > 100 µM | NCI-H23 > 100 µM | HCC 2998 > 100 µM | SK-OV-3 > 100 µM | SF-295 > 100 µM | OVCAR-8 > 100 µM | SF-539 > 95.5 µM | SNB-75 > 23.7 µM | SW-620 > 100 µM | HL-60 > 100 µM | NCI-H226 > 100 µM | KM12 > 100 µM | LOX IMVI > 43.8 µM | UACC-257 > 100 µM

CC(c1cccc2ccccc12)/[N+]([O-])=C/c1ccccc1 (stereo not drawn)
inactive: CCRF-CEM > 100 µM | 786-0 > 100 µM | MOLT-4 > 100 µM | HOP-62 > 100 µM | NCI-H23 > 100 µM | HCC 2998 > 100 µM | SK-OV-3 > 100 µM | SF-295 > 100 µM | OVCAR-8 > 100 µM | SF-539 > 100 µM | SNB-75 75 µM | SW-620 > 100 µM | HL-60 99.5 µM | KM12 > 100 µM | LOX IMVI > 100 µM | UACC-257 > 100 µM

C[C@]12CCc3nn(-c4ccccc4)nc3C1CC[C@@H]1C2CC[C@]2(C)C(=O)CCC12 (stereo partly drawn)
inactive: CCRF-CEM > 100 µM | 786-0 > 100 µM | MOLT-4 > 100 µM | SN12C > 100 µM | HOP-62 > 100 µM | NCI-H23 > 100 µM | HCC 2998 > 100 µM | SK-OV-3 > 100 µM | SF-295 > 100 µM | OVCAR-8 94.2 µM | SF-539 > 100 µM | SNB-75 > 100 µM | SW-620 > 100 µM | HL-60 > 100 µM | NCI-H226 > 100 µM | KM12 > 100 µM | LOX IMVI 82.2 µM | UACC-257 > 100 µM

CCOC(=O)/C(=C/c1ccc(C#N)cc1)N(CC)CC
inactive: CCRF-CEM > 100 µM | 786-0 > 100 µM | MOLT-4 > 100 µM | SN12C > 100 µM | HOP-62 > 100 µM | NCI-H23 > 100 µM | HCC 2998 > 100 µM | SK-OV-3 > 100 µM | SF-295 1.88 µM | OVCAR-8 > 100 µM | SF-539 > 100 µM | SNB-75 > 100 µM | SW-620 > 100 µM | HL-60 > 100 µM | NCI-H226 > 100 µM | KM12 > 100 µM | LOX IMVI > 100 µM | UACC-257 > 100 µM

COC(=O)/C=C/C1C(C(=O)OC)C2(C(=O)OC)CCC1(C(=O)OC)N2 (stereo not drawn)
inactive: CCRF-CEM > 100 µM | 786-0 > 100 µM | MOLT-4 > 100 µM | SN12C > 100 µM | HOP-62 > 100 µM | NCI-H23 > 100 µM | HCC 2998 > 100 µM | SK-OV-3 > 100 µM | SF-295 > 100 µM | OVCAR-8 > 100 µM | SF-539 > 100 µM | SNB-75 > 100 µM | SW-620 > 100 µM | HL-60 > 100 µM | NCI-H226 > 100 µM | KM12 > 100 µM | LOX IMVI > 100 µM | UACC-257 > 100 µM

CC(C)=CCC/C(C)=C/CC/C(C)=C/C1CCC(=O)C1(C)C (stereo not drawn)
inactive: CCRF-CEM 17.1 µM | 786-0 17.9 µM | MOLT-4 22.8 µM | SN12C 16.2 µM | HOP-62 26.5 µM | NCI-H23 20.3 µM | HCC 2998 22.9 µM | SK-OV-3 30.3 µM | SF-295 18.3 µM | OVCAR-8 19.6 µM | SF-539 19.5 µM | SNB-75 28.5 µM | HL-60 11.6 µM | NCI-H226 14.7 µM | KM12 16.3 µM | LOX IMVI 15.3 µM | UACC-257 21.3 µM

CN1COc2c(n(C)c(=O)[nH]c2=O)C1
inactive: CCRF-CEM > 61.7 µM | 786-0 > 100 µM | MOLT-4 > 100 µM | SN12C > 100 µM | HOP-62 > 100 µM | NCI-H23 > 100 µM | HCC 2998 > 100 µM | SK-OV-3 > 100 µM | SF-295 > 100 µM | OVCAR-8 > 95.7 µM | SF-539 > 100 µM | SNB-75 > 100 µM | SW-620 38.6 µM | HL-60 24.4 µM | NCI-H226 > 100 µM | KM12 > 100 µM | UACC-257 > 100 µM

Clc1ccc(C2SCc3nc4ccccc4n32)cc1Cl (stereo not drawn)
inactive: CCRF-CEM 23.7 µM | 786-0 13.8 µM | MOLT-4 17.1 µM | SN12C 12.6 µM | HOP-62 14.5 µM | NCI-H23 12.6 µM | SK-OV-3 21.4 µM | SF-295 11.9 µM | OVCAR-8 13.7 µM | SF-539 17.1 µM | SNB-75 3.25 µM | SW-620 15.3 µM | HL-60 5.9 µM | NCI-H226 25.2 µM | KM12 11.8 µM | LOX IMVI 13.1 µM

CC(=O)N1CCC(=O)/C(=C/c2ccccc2)C1
inactive: 786-0 27.7 µM | MOLT-4 33.2 µM | SN12C 18.2 µM | HOP-62 89.3 µM | NCI-H23 32.4 µM | HCC 2998 33.1 µM | SK-OV-3 75.2 µM | SF-295 42.8 µM | OVCAR-8 21.2 µM | SF-539 23.3 µM | SNB-75 37.1 µM | SW-620 17.6 µM | NCI-H226 > 100 µM | KM12 24.3 µM | LOX IMVI 16.1 µM | UACC-257 > 100 µM

O=C(/N=N/C(=O)OCc1ccccc1)OCc1ccccc1
inactive: CCRF-CEM 84.1 µM | 786-0 > 100 µM | MOLT-4 31.9 µM | SN12C > 100 µM | HOP-62 > 100 µM | NCI-H23 99.8 µM | HCC 2998 > 100 µM | SK-OV-3 > 100 µM | SF-295 35 µM | OVCAR-8 > 100 µM | SF-539 > 100 µM | SNB-75 42.1 µM | SW-620 > 100 µM | HL-60 43.7 µM | KM12 88.3 µM | LOX IMVI > 100 µM | UACC-257 > 100 µM

CCCCCCCCNC(=O)SCCCC
inactive: CCRF-CEM 23.4 µM | 786-0 30.6 µM | MOLT-4 22.5 µM | SN12C 37.8 µM | NCI-H23 38.5 µM | SK-OV-3 > 100 µM | SF-295 38 µM | OVCAR-8 33.8 µM | SF-539 38.6 µM | SNB-75 26.1 µM | SW-620 45.9 µM | HL-60 18.8 µM | KM12 55 µM | LOX IMVI 19.9 µM

CCC(C(=O)c1ccccc1)C(CCCC(=O)Nc1c(C)cccc1C)N=O (stereo not drawn)
inactive: CCRF-CEM > 100 µM | 786-0 > 100 µM | MOLT-4 > 100 µM | SN12C > 100 µM | HOP-62 > 100 µM | NCI-H23 > 100 µM | HCC 2998 > 100 µM | SK-OV-3 > 100 µM | SF-295 > 100 µM | OVCAR-8 > 100 µM | SF-539 > 100 µM | SNB-75 > 100 µM | SW-620 > 100 µM | HL-60 > 100 µM | NCI-H226 > 100 µM | KM12 > 100 µM | UACC-257 > 100 µM

O=c1[nH]c2c3ccccc3ccc2c2cc3c(cc12)OCO3
inactive: CCRF-CEM 69.8 µM | 786-0 > 100 µM | MOLT-4 40 µM | SN12C > 100 µM | HOP-62 89.1 µM | NCI-H23 > 100 µM | HCC 2998 > 100 µM | SK-OV-3 > 100 µM | SF-295 > 100 µM | OVCAR-8 > 100 µM | SF-539 > 100 µM | SNB-75 31.4 µM | SW-620 84.7 µM | NCI-H226 > 100 µM | KM12 75.5 µM | LOX IMVI > 100 µM | UACC-257 > 100 µM

COC(=O)[C@@H]1Cc2c([nH]c3ccccc23)[C@H](c2ccccc2)N1
inactive: CCRF-CEM 37.3 µM | 786-0 37.2 µM | MOLT-4 41.4 µM | SN12C 28.2 µM | NCI-H23 54.1 µM | HCC 2998 31.2 µM | SK-OV-3 34.4 µM | SF-295 26.2 µM | OVCAR-8 41.3 µM | SF-539 26.4 µM | SNB-75 19.5 µM | SW-620 35.8 µM | HL-60 29.9 µM | NCI-H226 71.8 µM | KM12 36.6 µM | LOX IMVI 38.9 µM | UACC-257 41.8 µM

C=C1C(=O)OC2C1C(OC(=O)/C(C)=C\C)CC1(CO1)C1C(O)C=C(C)C21O (stereo not drawn)
inactive: CCRF-CEM 2.65 µM | 786-0 2.96 µM | MOLT-4 2 µM | SN12C 3.27 µM | HOP-62 23.6 µM | NCI-H23 7.19 µM | HCC 2998 4.63 µM | SK-OV-3 16.7 µM | SF-295 20.8 µM | OVCAR-8 2.67 µM | SF-539 2.61 µM | SNB-75 10.6 µM | SW-620 1.58 µM | HL-60 3.04 µM | KM12 11.5 µM | LOX IMVI 14.4 µM | UACC-257 9.73 µM

CC(C)C(=O)/C=C/c1ccccc1
inactive: CCRF-CEM 23.9 µM | 786-0 46.5 µM | MOLT-4 54.3 µM | SN12C 79.3 µM | NCI-H23 63.8 µM | HCC 2998 > 100 µM | SK-OV-3 > 100 µM | SF-295 91.2 µM | SF-539 > 100 µM | SNB-75 > 100 µM | SW-620 72.1 µM | HL-60 42.3 µM | KM12 69.7 µM | LOX IMVI 83.6 µM | UACC-257 94.8 µM
